Measurements from PMC6385358, “Discovery of ((1,2,4-oxadiazol-5-yl)pyrrolidin-3-yl)ureidyl derivatives as selective non-steroidal agonists of the G-protein coupled bile acid receptor-1” (Scientific Reports, 2019).
Several values for one entry are separate records, joined by “and”; a condition that tells them apart may be missing. Equal values may be shown once.

Tests used:
[1] = test system: pro-glucagon mRNA in GLUTag cells; assay: RT-PCR of pro-glucagon mRNA expression in GLUTag cells; format: cell-based, mouse; conditions: 10 μM
Method: (§1) The activity of compounds 1–14 on GPBAR1 was evaluated in a luciferase reporter assay using HEK-293T cells transfected with GPBAR1. The efficacy of tested compounds (Table 1) was measured using taurolithocholic acid (TLCA) as GPBAR1 reference compound[10],[11]. Each compound was tested at the concentration of 10 μM and transactivation activity of TLCA on a cAMP responsive element (CRE) (i.e. TGR5/GPBAR1) was considered equal to 100%. […] Thus, 9 and 10 (Table 1) turned out to be the most promising derivatives considering their low EC50 values and high activity efficacy. To further characterize the pharmacological properties of these compounds, we expanded their in vitro profile to common off-targets for bile acid receptor ligands.
Figure 3 (A) Dose response curves of compounds 9 and 10 (concentrations ranging from 1 to 50 µM) in luciferase reporter assay. (B) Real-time PCR analysis of mRNA expression of Pro-glucagon in GLUTag cells treated with compounds 9 and 10 at 10 μM, and TLCA used as a positive control (10 μM). Values are normalized to GAPDH and are expressed relative to those of not treated cells (NT) which are arbitrarily settled to 1. The relative mRNA expression is expressed as 2^(−ΔΔCt). (C) Specificity of compounds 9 and 10 at 10 μM dose in luciferase reporter assays versus PPARα and PPARγ using Gemfibrozil (GEM, 10 μM) and Rosiglitazone (ROSI, 100 nM) as positive controls respectively. (D) Specificity of compounds 9 and 10 at 10 μM in luciferase reporter assays versus LXRα and LXRβ using GW3965 (GW, 10 μM) as positive control. (E) Specificity of compounds 9 and 10 at 10 μM in luciferase reporter assays versus FXR using CDCA (10 μM) as positive control; (F) Specificity of compounds 9 and 10 at 10 μM in luciferase reporter assays versus PXR using Rifaximin (Rifax, 10 μM) as positive control.
Evaluation of proglucagon mRNA expression was performed in RT-PCR on GLUTag cells (1 × 10^6 cells/well in a 6 well plate) as previously reported[34],[47]. The relative mRNA expression was calculated and expressed as 2^−(ΔΔCt). […]

PPARα = target: T1, PPARα (Homo sapiens, UniProt Q07869); assay: Luciferase reporter specificity assay versus PPARα on HepG2 cells; format: cell-based; conditions: 10 μM
T1 construct: host or cells: HepG2
T1 sequence (Q07869 1-468): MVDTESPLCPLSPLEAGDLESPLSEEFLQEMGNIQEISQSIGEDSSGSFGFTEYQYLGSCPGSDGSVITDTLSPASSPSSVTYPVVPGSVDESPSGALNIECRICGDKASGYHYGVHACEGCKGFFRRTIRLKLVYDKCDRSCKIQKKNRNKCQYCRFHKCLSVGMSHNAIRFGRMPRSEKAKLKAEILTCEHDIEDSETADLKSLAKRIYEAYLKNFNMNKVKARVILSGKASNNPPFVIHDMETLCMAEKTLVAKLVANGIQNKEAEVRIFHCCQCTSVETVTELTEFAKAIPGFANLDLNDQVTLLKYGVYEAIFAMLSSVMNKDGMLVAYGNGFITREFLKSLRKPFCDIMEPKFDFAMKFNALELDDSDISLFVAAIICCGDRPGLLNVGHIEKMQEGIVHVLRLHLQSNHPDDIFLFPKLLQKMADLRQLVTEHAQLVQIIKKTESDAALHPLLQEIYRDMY
Method: as §1
Figure 3 (A) Dose response curves of compounds 9 and 10 (concentrations ranging from 1 to 50 µM) in luciferase reporter assay. (B) Real-time PCR analysis of mRNA expression of Pro-glucagon in GLUTag cells treated with compounds 9 and 10 at 10 μM, and TLCA used as a positive control (10 μM). Values are normalized to GAPDH and are expressed relative to those of not treated cells (NT) which are arbitrarily settled to 1. The relative mRNA expression is expressed as 2^(−ΔΔCt). […]
The specificity of compounds 9 and 10 versus PPARα, PPARγ, LXRα, LXRβ, FXR and PXR was determined in luciferase reporter gene assays as previously reported[29],[31].

[2] = Aqueous solubility measurement (PBS pH 7.4, LC-MS); format: physicochemical; conditions: aqueous buffer, kinetic from dmso stock; PBS pH 7.4, 24 h room temperature
Method: (§2) Chromatography was performed using a HPLC–MS system Q-ToF Premiere instrument (Waters, Co.) equipped with an ESI source and Waters pump systems. The mixture was separated on a Luna 5 µm C8(2) 100 °A 150 × 2 mm from Phenomenex. The mobile phase consisted of 0.2% formic acid (FA) in water as solvent A and 0.2% FA in acetonitrile as solvent B at a flow rate of 200 μL/min. The gradient was as follows: 0–2 min (75% A and 25% B), 2–20 min (5% A and 95% B), 20–30 min (75% A and 25% B). The detection of analytes was achieved by ESI in the positive mode with the appropriate MRM transition or by UV system at 220 nm.
Ten μL of a 10 mM solution in DMSO of the compound was diluted either in 490 μL of PBS pH 7.4 or in the organic solvent MeOH (in triplicate). The tubes were gently shaken 24 h at room temperature, then centrifuged for 5 min at 4000 rpm. Ten μL of sample was diluted in 490 μL of MeOH. The solubility is determined by the ratio of mass signal area PBS/organic solvent.

[3] = Liver microsomal stability; format: in vitro ADME, mouse; conditions: liver microsomes; for CIint / half-life at 1 μM: 1 μM compound; for CIint: 0.3 mg protein/mL; for half-life at 1 μM: male, CD-1, mouse, pH 7.4, read-out: t½
Method: as §2
Male mouse (CD-1) liver microsomes (Sigma-Aldrich) were used. All incubations were performed in duplicate in a shaking water bath at 37 °C. The incubation mixtures contained 1 μM compound with 1% DMSO used as a vehicle, mouse liver microsomes (0.3 mg of microsomal protein per mL), 5 mM MgCl2, 1 mM NADP, 5 mM glucose 6-phosphate, 0.4 U·mL^-^1 glucose 6-phosphate dehydrogenase, and 50 mM potassium phosphate buffer (pH 7.4) in a final volume of 0.5 mL. Aliquots were removed at 0, 5, 10, 20, 30, and 40 min after microsome addition and the reaction was stopped by adding 200 μL of ice-cold acetonitrile. After 2 h, the samples were centrifuged for 10 min at 10000 rpm, and the supernatants were transferred in matrix tubes for LC-MS/MS analysis. Propranolol, known as a high hepatic clearance drug in rodents, was used as a quality-control compound for the microsomal incubations. The slope of the linear regression of the curve obtained reporting the natural logarithm of compound area versus incubation time (−k) was used in the conversion to in vitro t1/2 values by t1/2 = […]. In vitro intrinsic clearance (Clint expressed as μL/min/mg) was calculated according to the following formula: Clint = volume of reaction (μL)/t1/2 (min)/protein of liver microsomes (mg).

| SMILES | Induction of pro-glucagon mRNA expression [1] | PPARα transactivation (PPARα) | solubility at 24 h [2] | CIint [3] | Compound remaining 40 min after treatment [3] | half-life at 1 μM [3] | Efficacy in inducing pro-glucagon mRNA expression compared with TLCA ([1]; TLCA 10 μM) |
| --- | --- | --- | --- | --- | --- | --- | --- |
| O=C(Nc1ccc(Cl)cc1)N[C@@H]1CN[C@H](c2nc(-c3ccccc3)no2)C1 [Compound 9] | effective in inducing the expression of pro-glucagon mRNA | unable to induce | 42 µg/mL and 110 µM | 67 μL/min/mg protein | 42% | 35 min | – |
| O=C(NC1CCCCC1)N[C@@H]1CN[C@H](c2nc(-c3ccccc3)no2)C1 [Compound 10] | effective in inducing the expression of pro-glucagon mRNA | unable to induce | 70 µg/mL and 198 µM | 76 μL/min/mg protein | 40% | 30 min | same efficacy of TLCA |
